According to the supplement of paper PMC10307832:

What was measured:
Trametinib + Bortezomib = compound: CC(=O)Nc1cccc(-n2c(=O)n(C3CC3)c(=O)c3c(Nc4ccc(I)cc4F)n(C)c(=O)c(C)c32)c1 [Trametinib] + CC(C)C[C@H](NC(=O)[C@H](Cc1ccccc1)NC(=O)c1cnccn1)B(O)O [Bortezomib] (partner 0.002 µM); experiment: relative viability (nuclei count vs DMSO), 5 days (fraction); higher = more cells survive
Method in brief: (§1)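 Relative viability is defined as nuclei in treated wells over nuclei in vehicle wells. Duplicate plates were run and medians reported. Lung cancer cell lines in 1536-well plates were dosed by pin tool one day after seeding, with one drug or with a fixed anchor-drug dose plus five library-drug doses (not always all listed) in √10 steps, and nuclei were counted after 5 days.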

[1] = compound: CN1C=C(C2=CC=CC=C21)/C=C\3/C4=C(C=CC=N4)NC3=O + NC(=O)Nc1cc(-c2cccc(F)c2)sc1C(=O)N[C@H]1CCCNC1 [AZD7762] (partner 0.2 µM); experiment: as above
Method in brief: as §1

Cell Line	relative viability (Trametinib + Bortezomib; first compound 0.0025 µM)	relative viability (Trametinib + Bortezomib; first compound 0.007906 µM)	relative viability (Trametinib + Bortezomib; first compound 0.025 µM)	relative viability (Trametinib + Bortezomib; first compound 0.07906 µM)	relative viability (Trametinib + Bortezomib; first compound 0.25 µM)	relative viability ([1]; first compound 0.02 µM)	relative viability ([1]; first compound 0.06325 µM)	relative viability ([1]; first compound 0.6325 µM)	relative viability ([1]; first compound 2 µM)	relative viability ([1]; first compound 0.2 µM)
HOP-62	0.776	0.956	0.425	0.439	0.186	0.569	0.559	0.919	0.774	–
LC-2-ad	0.999	0.898	0.928	0.713	0.443	0.836	0.835	0.821	0.861	0.754
SW 900	–	–	–	–	–	0.512	–	0.555	0.591	–
NCI-H322M	1.29	1.14	0.879	1.03	0.717	0.58	0.488	0.592	0.617	0.509
SK-LU-1	1.13	0.815	0.726	0.623	0.326	–	–	–	–	–
NCI-H1734	0.901	0.987	–	0.734	0.349	0.521	0.537	0.546	0.559	–
HCC-44	0.926	0.905	0.946	0.816	0.585	0.937	1.02	1	0.956	0.94
NCI-H1703	0.294	0.263	0.372	0.369	0.287	0.107	0.138	0.112	0.14	0.118
NCI-H2170	–	–	–	–	–	0.86	0.811	0.825	0.761	0.581
NCI-H1395	–	–	–	–	–	0.385	0.374	0.407	0.403	0.364
NCI-H1355	0.981	1.04	0.554	0.847	0.266	0.715	0.708	0.606	0.642	0.637
NCI-H1650	0.218	0.19	0.182	0.198	0.188	–	–	–	–	–
IA-LM	0.621	0.392	0.174	0.178	0.111	–	–	–	–	–
NCI-H1666	0.639	0.591	0.499	0.452	0.401	0.896	0.79	0.742	0.871	0.826
HCC-78	0.399	0.404	0.4	0.395	0.332	0.502	0.546	0.608	0.348	0.6
H3255	0.814	0.769	0.597	0.42	0.344	1.02	0.86	0.954	0.844	0.848
NCI-H23	0.853	1.01	0.364	0.377	0.21	0.264	0.232	0.252	0.189	0.167
NCI-H1944	–	–	–	–	–	0.442	0.471	0.464	0.469	–
NCI-H1651	0.967	0.9	0.801	0.83	0.43	0.497	0.455	0.557	0.477	0.433
EBC-1	0.631	0.544	0.427	0.376	0.337	–	–	–	–	–
COR-L 105	0.748	0.612	0.389	0.315	0.335	–	–	–	–	–
RERF-LC-KJ	0.91	1.02	0.926	0.877	0.661	1.03	0.96	1.01	0.928	0.805
NCI-H1793	–	–	–	–	–	0.431	0.595	0.387	0.443	0.316
CAL-12T	0.784	0.734	0.645	1.43	0.454	0.586	0.612	0.643	0.612	0.623
NCI-H1993	0.861	0.834	0.558	0.48	0.596	0.704	0.666	0.698	0.626	0.671
LXF-289	0.872	0.812	0.757	0.703	0.459	1.14	1.16	1.21	1.1	0.975

Cell Line	relative viability (Trametinib + Bortezomib; first compound 0.0025 µM)	relative viability (Trametinib + Bortezomib; first compound 0.007906 µM)	relative viability (Trametinib + Bortezomib; first compound 0.025 µM)	relative viability (Trametinib + Bortezomib; first compound 0.07906 µM)	relative viability (Trametinib + Bortezomib; first compound 0.25 µM)	relative viability ([1]; first compound 0.02 µM)	relative viability ([1]; first compound 0.06325 µM)	relative viability ([1]; first compound 0.6325 µM)	relative viability ([1]; first compound 2 µM)	relative viability ([1]; first compound 0.2 µM)
NCI-H1792	0.971	0.85	0.647	0.597	0.455	0.943	0.702	0.518	0.693	0.376
LU99A	1.08	1.21	0.815	0.726	0.407	0.372	0.435	0.331	0.377	0.345
SW 1573	0.806	0.514	0.888	0.743	0.417	–	–	–	–	–
COR-L23	0.982	1	1.02	0.935	0.309	–	–	–	–	–
NCI-H1755	0.847	0.835	0.806	0.843	0.679	0.443	0.408	0.448	0.409	0.354
LOU-NH91	0.505	0.489	0.491	0.508	0.334	0.684	0.641	0.664	0.764	0.402
EMC-BAC-2	1.05	0.99	0.865	1	0.859	0.963	0.963	1.03	1	0.91
ChaGo-K-1	1.12	0.871	1.05	0.713	0.476	0.703	0.868	0.848	0.877	0.723
NCI-H2023	0.957	0.791	0.582	0.806	0.212	–	–	–	–	–
EKVX	0.797	0.628	0.6	0.373	0.331	0.676	–	0.644	0.607	–
NCI-H2085	0.994	0.799	0.751	0.783	0.6	0.97	1.03	0.956	0.947	0.968
NCI-H3122	0.985	0.74	0.595	0.432	0.361	0.85	0.953	1.04	1.07	0.845
HCC-827	0.943	0.989	0.974	0.92	0.748	0.202	0.187	0.246	0.215	–
HARA	1.09	1.06	0.983	0.745	0.0924	0.197	0.368	0.358	0.345	–
NCI-H441	0.474	0.55	0.72	0.475	0.17	1.15	1.21	1.06	1.05	1.19
NCI-H2342	–	–	–	–	–	0.434	0.459	0.42	0.406	0.393
NCI-H1648	–	–	–	–	–	0.705	0.502	0.522	0.816	0.673
HCC-15	0.946	0.62	0.731	0.492	0.203	1.11	1.13	1.22	1.31	1.37
ABC-1	0.301	0.299	0.255	0.251	0.235	0.889	–	0.708	0.874	–
EPLC-272H	1.02	0.841	0.516	0.737	0.157	0.321	0.244	0.132	0.174	–
NCI-H2009	0.929	0.67	0.3	0.332	0.195	–	–	–	–	–
NCI-H661	0.82	0.689	0.728	0.534	0.54	–	–	–	–	–
NCI-H520	0.612	0.485	0.444	0.44	0.126	–	–	–	–	–
NCI-H1563	0.854	0.794	0.824	0.682	0.616	–	–	–	–	–
NCI-H2405	0.999	0.909	0.657	0.597	0.508	0.857	0.731	0.835	0.795	0.552
LCLC-97TM1	0.616	0.482	0.128	0.0773	0.0973	0.177	0.188	0.168	0.284	0.0774

Cell Line	relative viability (Trametinib + Bortezomib; first compound 0.0025 µM)	relative viability (Trametinib + Bortezomib; first compound 0.007906 µM)	relative viability (Trametinib + Bortezomib; first compound 0.025 µM)	relative viability (Trametinib + Bortezomib; first compound 0.07906 µM)	relative viability (Trametinib + Bortezomib; first compound 0.25 µM)	relative viability ([1]; first compound 0.02 µM)	relative viability ([1]; first compound 0.06325 µM)	relative viability ([1]; first compound 0.6325 µM)	relative viability ([1]; first compound 2 µM)	relative viability ([1]; first compound 0.2 µM)
NCI-H727	0.663	0.422	0.272	0.257	0.277	0.575	0.563	0.591	0.511	0.405
NCI-H522	–	–	–	–	–	0.686	0.784	1.1	0.882	0.76
NCI-H2228	1.02	0.876	0.801	0.711	0.433	–	–	–	–	–
LK-2	–	–	–	–	–	0.173	0.278	0.32	0.271	0.162
PC-3 [JPC-3]	0.862	0.815	0.837	0.716	0.262	0.811	0.801	0.819	0.701	0.752
NCI-H596	0.759	0.892	0.795	1.47	0.474	1	1.04	1	1.21	0.92
NCI-H1299	1.04	0.992	0.971	0.955	0.739	–	–	–	–	–
NCI-H460	1.03	0.82	0.544	0.346	0.043	0.627	0.576	0.677	0.574	0.263
NCI-H647	0.853	0.75	0.652	0.654	0.294	0.348	0.418	0.304	0.378	0.0952
NCI-H838	0.719	0.563	–	0.557	0.224	0.81	0.753	0.871	0.632	0.789
PC-14	0.918	0.834	0.673	0.76	0.594	0.254	0.307	0.306	0.264	0.19
NCI-H358	–	–	–	–	–	0.531	0.494	0.488	0.548	0.338
NCI-H1915	0.931	0.816	0.825	0.756	0.139	0.678	0.646	0.751	0.699	0.529
201T	1.08	1.01	0.942	1.05	0.801	0.578	0.662	0.668	0.658	0.761
NCI-H1437	0.463	0.257	0.179	0.205	0.174	1.23	1.2	1.17	1.26	1.1
A-427	1.1	1.05	0.735	0.763	0.601	0.782	0.753	0.729	0.802	–
HCC-366	0.962	0.897	0.902	0.645	0.172	0.29	0.278	0.178	0.24	0.0805
BEN	0.76	0.725	–	0.531	0.657	0.771	0.742	0.622	0.728	0.485
NCI-H2347	1.08	0.818	0.338	0.389	0.337	0.778	0.728	0.79	0.83	0.56
LCLC-103H	1.16	0.977	0.887	0.821	0.626	0.864	0.758	0.741	0.786	0.73
Calu-6	1.08	0.813	0.376	0.236	0.224	–	–	–	–	–
NCI-H650	1.06	1.15	0.791	0.729	0.276	1.05	0.939	1.2	0.965	–
NCI-H1975	0.303	0.224	0.206	0.173	0.169	0.893	0.811	0.602	0.542	0.62
NCI-H2126	1.11	0.956	0.685	0.983	0.769	1.01	0.899	1	1	0.864
NCI-H2087	0.899	0.669	0.446	0.327	0.129	1.41	1.33	1.22	1.37	1.31
